We go through 23 compounds from patent US20250171495A1, “MUTLI-TARGETED SERINE PROTEASE INHIBITORS FOR TREATMENT OF CANCER AND VIRAL INFECTION” (Washington University, priority 2023, published 2025).

This assay relates to VSV-SARS-CoV-2. Kind of assay: microbe, parasite or virus in culture. The settings on record: Vesicular stomatitis virus, Calu-3, in Homo sapiens, read-out: VSV SARS CoV-2 Cell Entry EC50 (nM).
For the compound `CC(=O)N[C@@H](CC(C)C)C(=O)N[C@@H](CC(C)C)C(=O)N[C@@H](CCCNC(=N)N)C(=O)c1nccs1` [ZFH6201-1, N-[(S)-4-guanidino-1-[(1,3-thiazol-2-yl)carbonyl]butyl](S)-2-[(S)-2-acetylamino-4-methylvalerylamino]-4-methylvaleramide], the 50% effective concentration (EC50) (commonly the midpoint of the concentration-response curve) came to 1840 nM.
Consider `CCC(C)[C@H](NC(C)=O)C(=O)N[C@@H](CCC(N)=O)C(=O)N[C@H](C(=O)N[C@@H](CCCNC(=N)N)C(=O)c1nc2ccccc2s1)C(C)C` (stereo partly drawn) [MM3180-2, N-[(S)-2-methyl-1-[N-(S)-1-[(1,3-benzothiazol-2-yl)carbonyl]-4-guanidinobutylcarbamoyl]propyl](S)-2-[(2S)-2-acetylamino-3-methylvalerylamino]glutaramide], for which the EC50 amounted to 12 nM.
Consider `CCC(C)[C@H](NC(C)=O)C(=O)N[C@@H](CCC(N)=O)C(=O)N[C@@H](Cc1c[nH]c2ccccc12)C(=O)N[C@@H](CCCNC(=N)N)C(=O)c1nc2ccccc2s1` (stereo partly drawn) [MM3187, N-[(S)-2-(3-indolyl)-1-[N-(S)-1-[(1,3-benzothiazol-2-yl)carbonyl]-4-guanidinobutylcarbamoyl]ethyl](S)-2-[(2S)-2-acetylamino-3-methylvalerylamino]glutaramide], for which the EC50 is 22 nM.
In the case of `CC(=O)N[C@H](Cc1c[nH]c2ccccc12)C(=O)N[C@@H](Cc1ccccc1)C(=O)N[C@@H](CCCNC(=N)N)C(=O)c1nc2ccccc2s1` [PK-1-89A1, N-[(S)-1-[(1,3-benzothiazol-2-yl)carbonyl]-4-guanidinobutyl](S)-2-[(R)-2-acetylamino-3-(3-indolyl)propionylamino]-3-phenylpropionamide], the EC50 was 140 nM.
Take `CCC(C)[C@H](NC(C)=O)C(=O)N[C@@H](CCC(N)=O)C(=O)N[C@@H](C)C(=O)N[C@@H](CCCNC(=N)N)C(=O)c1nc2ccccc2s1` (stereo partly drawn) [MM3178, N-[(S)-1-[N-(S)-1-[(1,3-benzothiazol-2-yl)carbonyl]-4-guanidinobutylcarbamoyl]ethyl](S)-2-[(2S)-2-acetylamino-3-methylvalerylamino]glutaramide]: the EC50 is 10.8 nM.
For the compound `CC(=O)N[C@@H](Cc1c[nH]c2ccccc12)C(=O)N[C@@H](Cc1ccccc1)C(=O)N[C@@H](CCCNC(=N)N)C(=O)c1nc2ccc(C(=O)O)cc2s1` [PK-1-103, 2-[(S)-2-[(S)-2-[(S)-2-acetylamino-3-(3-indolyl)propionylamino]-3-phenylpropionylamino]-5-guanidinovaleryl]-1,3-benzothiazole-6-carboxylic acid], the EC50 worked out at 116 nM.
`CCC(C)[C@H](NC(C)=O)C(=O)N[C@@H](CCC(=O)O)C(=O)N[C@@H](Cc1ccccc1)C(=O)N[C@@H](CCCNC(=N)N)C(=O)c1nc2ccccc2s1` (stereo partly drawn) [MM4037-2, (S)-4-[(2S)-2-acetylamino-3-methylvalerylamino]-4-[N-(S)-1-[N-(S)-1-[(1,3-benzothiazol-2-yl)carbonyl]-4-guanidinobutylcarbamoyl]-2-phenylethylcarbamoyl]butyric acid]: the 50% effective concentration (EC50) was determined as 23.9 nM.
`CCC(C)[C@H](NC(C)=O)C(=O)N[C@@H](CO)C(=O)N[C@@H](Cc1ccccc1)C(=O)N[C@@H](CCCNC(=N)N)C(=O)c1nc2ccccc2s1` (stereo partly drawn) [MM4009-2, N-[(S)-2-hydroxy-1-[N-(S)-1-[N-(S)-1-[(1,3-benzothiazol-2-yl)carbonyl]-4-guanidinobutylcarbamoyl]-2-phenylethylcarbamoyl]ethyl] (2S)-2-acetylamino-3-methylvaleramide]: the EC50 came out at 40.3 nM.
For the compound `CC(=O)N1CCC[C@H]1C(=O)N[C@@H](CO)C(=O)N[C@@H](CCCCN)C(=O)N[C@@H](CCCNC(=N)N)C(=O)c1nc2ccccc2s1` [MM3194A, N-[(S)-2-hydroxy-1-[N-(S)-5-amino-1-[N-(S)-1-[(1,3-benzothiazol-2-yl)carbonyl]-4-guanidinobutylcarbamoyl]pentylcarbamoy1]ethyl]-(S)-1-acetyl-2-pyrrolidinecarboxamide], the EC50 was found to be 613 nM.
For the compound `CCC(C)[C@H](NC(C)=O)C(=O)N[C@@H](CCC(N)=O)C(=O)N[C@@H](Cc1ccccc1)C(=O)N[C@@H](CCCNC(=N)N)C(=O)c1nc2ccccc2s1` (stereo partly drawn) [MM3116, N-[(S)-1-[N-(S)-1-[(1,3-benzothiazol-2-yl)carbonyl]-4-guanidinobutylcarbamoyl]-2-phenylethyl](S)-2-[(2S)-2-acetylamino-3-methylvalerylamino]glutaramide], the EC50 came to 3.6 nM.
For `CCC(C)[C@H](NC(C)=O)C(=O)N[C@@H](CCC(N)=O)C(=O)N[C@H](C(=O)N[C@H](CCCNC(=N)N)C(=O)c1nc2ccccc2s1)C(C)C` (stereo partly drawn) [MM3180-1, N-[(S)-2-methyl-1-[N-(R)-1-[(1,3-benzothiazol-2-yl)carbonyl]-4-guanidinobutylcarbamoyl]propyl](S)-2-[(2S)-2-acetylamino-3-methylvalerylamino]glutaramide] the value was 5.3 nM; for `CC(=O)N[C@@H](CO)C(=O)N[C@@H](CCC(N)=O)C(=O)N[C@@H](CC(C)C)C(=O)N[C@@H](CCCNC(=N)N)C(=O)c1nccs1` [ZFH6138, N-[(S)-3-methyl-1-[N-(S)-4-guanidino-1-[(1,3-thiazol-2-yl)carbonyl]butylcarbamoyl]butyl](S)-2-[(S)-2-acetylamino-3-hydroxypropionylamino]glutaramide], 1320 nM.
For `CCC(C)[C@H](NC(C)=O)C(=O)N[C@@H](CCC(N)=O)C(=O)N[C@H](C(=O)N[C@@H](CCCNC(=N)N)C(=O)c1nc2ccccc2s1)C(C)O` (stereo partly drawn) [MM3186, N-[(1S)-2-hydroxy-1-[N-(S)-1-[(1,3-benzothiazol-2-yl)carbonyl]-4-guanidinobutylcarbamoyl]propyl](S)-2-[(2S)-2-acetylamino-3-methylvalerylamino]glutaramide] the value was 18.5 nM.
As to `N=C(N)NCCC[C@H](NC(=O)[C@H](Cc1ccccc1)NC(=O)[C@H](N)Cc1c[nH]c2ccccc12)C(=O)c1nc2ccc(C(=O)O)cc2s1` [PK-1-45A1, 2-[(S)-2-[(S)-2-[(R)-2-amino-3-(3-indolyl)propionylamino]-3-phenylpropionylamino]-5-guanidinovaleryl]-1,3-benzothiazole-6-carboxylic acid], the 50% effective concentration (EC50) stood at 105 nM.
As for `CCC(C)[C@H](NC(C)=O)C(=O)N[C@@H](CCSC)C(=O)N[C@@H](Cc1ccccc1)C(=O)N[C@H](CCCNC(=N)N)C(=O)c1nc2ccccc2s1` (stereo partly drawn) [MM4027-1, N-[(S)-3-(methylthio)-1-[N-(S)-1-[N-(R)-1-[(1,3-benzothiazol-2-yl)carbonyl]-4-guanidinobutylcarbamoyl]-2-phenylethylcarbamoyl]propyl](2S)-2-acetylamino-3-methylvaleramide], the concentration giving a half-maximal response (EC50) is 92.3 nM.
Turning to `CC(=O)N[C@H]1Cc2ccc(cc2)OCCCC[C@@H](C(=O)N[C@@H](CCCNC(=N)N)C(=O)c2nc3ccccc3s2)NC(=O)[C@@H](Cc2c[nH]c3ccccc23)NC1=O` [VD4162B, N-[(S)-1-[(1,3-benzothiazol-2-yl)carbonyl]-4-guanidinobutyl]-(7S,10R,13S)-13-acetylamino-10-[(3-indolyl)methyl]-9,12-dioxo-2-oxa-8,11-diazabicyclo[13.2.2]nonadeca-1(17),15,18-triene-7-carboxamide], the EC50 was 2060 nM.
For the compound `CC(=O)NCC(=O)N[C@@H](CCC(N)=O)C(=O)N[C@@H](Cc1ccccc1)C(=O)N[C@@H](CCCNC(=N)N)C(=O)c1nc2ccccc2s1` [MM3122, N-[(S)-1-[N-(S)-1-[(1,3-benzothiazol-2-yl)carbonyl]-4-guanidinobutylcarbamoyl]-2-phenylethyl](S)-2-[(acetylaminomethyl)carbonylamino]glutaramide], the EC50 came to 0.43 nM.
`CC(=O)N[C@@H](CO)C(=O)N[C@@H](CCCCN)C(=O)N[C@@H](Cc1ccccc1)C(=O)N[C@@H](CCCNC(=N)N)C(=O)c1nccs1` [ZFH6095, N-[(S)-1-[N-(S)-4-guanidino-1-[(1,3-thiazol-2-yl)carbonyl]butylcarbamoyl]-2-phenylethyl](S)-2-[(S)-2-acetylamino-3-hydroxypropionylamino]-6-aminohexanamide]: the EC50 worked out at 1160 nM.
For `CC(=O)N1CCC[C@H]1C(=O)N[C@@H](CCC(N)=O)C(=O)N[C@@H](Cc1ccccc1)C(=O)N[C@@H](CCCNC(=N)N)C(=O)c1nc2ccccc2s1` [MM3123, N-[(S)-1-[N-(S)-1-[(1,3-benzothiazol-2-yl)carbonyl]-4-guanidinobutylcarbamoyl]-2-phenylethyl](S)-2-[(S)-1-acetyl-2-pyrrolidinylcarbonylamino] glutaramide] the value was 0.86 nM; for `CC(=O)N[C@@H](CC(C)C)C(=O)N[C@@H](CCC(N)=O)C(=O)N[C@@H](Cc1ccccc1)C(=O)N[C@@H](CCCNC(=N)N)C(=O)c1nc2ccccc2s1` [MM3131, N-[(S)-1-[N-(S)-1-[(1,3-benzothiazol-2-yl)carbonyl]-4-guanidinobutylcarbamoyl]-2-phenylethyl](S)-2-[(S)-2-acetylamino-4-methylvalerylamino]glutaramide], 10.7 nM.
Take `CC(=O)N[C@@H](Cc1c[nH]c2ccccc12)C(=O)N[C@@H](Cc1ccccc1)C(=O)N[C@@H](CCCNC(=N)N)C(=O)c1nc2ccccc2s1` [PK-1-102A1, N-[(S)-1-[(1,3-benzothiazol-2-yl)carbonyl]-4-guanidinobutyl](S)-2-[(S)-2-acetylamino-3-(3-indolyl)propionylamino]-3-phenylpropionamide]: the half-maximal effective concentration (EC50) was 1380 nM.
For the compound `CCC(C)[C@H](NC(C)=O)C(=O)N[C@H](C(=O)N[C@@H](Cc1ccccc1)C(=O)N[C@@H](CCCNC(=N)N)C(=O)c1nc2ccccc2s1)C(C)O` (stereo partly drawn) [MM4028-2, N-[(1S)-2-hydroxy-1-[N-(S)-1-[N-(S)-1-[(1,3-benzothiazol-2-yl)carbonyl]-4-guanidinobutylcarbamoyl]-2-phenylethylcarbamoyl]propyl](2S)-2-acetylamino-3-methylvaleramide], the half-maximal effective concentration (EC50) worked out at 103 nM.
Take `CCC(C)[C@H](NC(C)=O)C(=O)N[C@H](Cc1cc2ccccc2[nH]1)C(=O)N[C@@H](Cc1ccccc1)C(=O)N[C@@H](CCCNC(=N)N)C(=O)c1nc2ccccc2s1` (stereo partly drawn) [MM4038, N-[(R)-2-(2-indolyl)-1-[N-(S)-1-[N-(S)-1-[(1,3-benzothiazol-2-yl)carbonyl]-4-guanidinobutylcarbamoyl]-2-phenylethylcarbamoy1]ethyl](2S)-2-acetylamino-3-methylvaleramide]: the half-maximal effective concentration (EC50) was determined as 226 nM.
